Test results as given in PubChem BioAssay (NCI).
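Cells were grown in 96-well plates and exposed to each compound for 48 hours at five concentrations; endpoints were interpolated linearly between bracketing concentrations, or set to the highest concentration if not reached. TGI is the concentration that stops growth completely.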

Key:
Experiment in all cases: DTP human tumour cell line panel, 48 h
[1] = system: K-562 leukemia
[2] = system: DMS 273 small cell lung
[3] = system: SNB-75 CNS
[4] = system: NCI-H226 lung
[5] = system: SK-MEL-2 melanoma
[6] = system: TK-10 renal
[7] = system: IGROV1 ovarian
[8] = system: HT29 colon
[9] = system: UO-31 renal
[10] = system: KM12 colon
[11] = system: COLO 205 colon
[12] = system: NCI-H522 lung
[13] = system: HL-60(TB) leukemia
[14] = system: M19-MEL melanoma
[15] = system: CCRF-CEM leukemia
[16] = system: OVCAR-8 ovarian
[17] = system: RPMI-8226 leukemia
[18] = system: NCI-H23 lung
[19] = system: XF 498 CNS
[20] = system: SF-268 CNS
[21] = system: U251 CNS
[22] = system: MOLT-4 leukemia
[23] = system: SF-539 CNS
[24] = system: 786-0 renal
[25] = system: OVCAR-4 ovarian
[26] = system: NCI-H460 lung
[27] = system: HCT-116 colon
[28] = system: SK-MEL-28 melanoma
[29] = system: MALME-3M melanoma
[30] = system: HOP-62 NSCLC
[31] = system: RXF 393 renal
[32] = system: HCT-15 colon
[33] = system: SF-295 CNS
[34] = system: SNB-19 CNS
[35] = system: LOX IMVI melanoma
[36] = system: SK-OV-3 ovarian
[37] = system: OVCAR-3 ovarian
[38] = system: A549 NSCLC
[39] = system: OVCAR-5 ovarian
[40] = system: SW-620 colon
[41] = system: CAKI-1 renal
[42] = system: ACHN renal
[43] = system: LXFL 529 NSCLC
[44] = system: SN12C renal
[45] = system: HCC-2998 colon
[46] = system: SR leukemia
[47] = system: DMS 114 small cell lung
[48] = system: EKVX NSCLC
[49] = system: UACC-257 melanoma
[50] = system: KM20L2 colon
[51] = system: DLD-1 colon
[52] = system: M14 melanoma
[53] = system: UACC-62 melanoma
[54] = system: SNB-78 CNS
[55] = system: HOP-18 NSCLC
[56] = system: SK-MEL-5 melanoma
[57] = system: A498 renal

Question: `C=CCCOC(=O)CO[N+](=O)[O-]` was tested. Which TGI [1] did it give?
Answer: > 100 µM

Question: What about the TGI [2] of the same compound?
Answer: > 100 µM

Question: What about the TGI [3] of the same compound?
Answer: > 100 µM

Question: What about the TGI [4] of the same compound?
Answer: > 100 µM

Question: What about the TGI [5] of the same compound?
Answer: > 100 µM

Question: And the TGI [6]?
Answer: > 100 µM

Question: And the TGI [7]?
Answer: > 100 µM

Question: What about the TGI [8] of the same compound?
Answer: > 100 µM

Question: And the TGI [9]?
Answer: > 100 µM

Question: And the TGI [10]?
Answer: > 100 µM

Question: And the TGI [11]?
Answer: > 100 µM

Question: And the TGI [12]?
Answer: > 100 µM

Question: And the TGI [13]?
Answer: 70.1 µM

Question: And the TGI [14]?
Answer: > 100 µM

Question: What about the TGI [15] of the same compound?
Answer: > 100 µM

Question: And the TGI [16]?
Answer: > 100 µM

Question: What about the TGI [17] of the same compound?
Answer: > 100 µM

Question: And the TGI [18]?
Answer: > 100 µM

Question: What about the TGI [19] of the same compound?
Answer: > 100 µM

Question: What about the TGI [20] of the same compound?
Answer: > 100 µM

Question: And the TGI [21]?
Answer: > 100 µM

Question: What about the TGI [22] of the same compound?
Answer: > 100 µM

Question: And the TGI [23]?
Answer: > 100 µM

Question: And the TGI [24]?
Answer: > 100 µM

Question: And the TGI [25]?
Answer: > 100 µM

Question: And the TGI [26]?
Answer: > 100 µM

Question: And the TGI [27]?
Answer: > 100 µM

Question: And the TGI [28]?
Answer: > 100 µM

Question: What about the TGI [29] of the same compound?
Answer: > 100 µM

Question: And the TGI [30]?
Answer: > 100 µM

Question: What about the TGI [31] of the same compound?
Answer: > 100 µM

Question: And the TGI [32]?
Answer: > 100 µM

Question: What about the TGI [33] of the same compound?
Answer: > 100 µM

Question: And the TGI [34]?
Answer: > 100 µM

Question: What about the TGI [35] of the same compound?
Answer: > 100 µM

Question: What about the TGI [36] of the same compound?
Answer: > 100 µM

Question: And the TGI [37]?
Answer: > 100 µM

Question: And the TGI [38]?
Answer: > 100 µM

Question: And the TGI [39]?
Answer: > 100 µM

Question: And the TGI [40]?
Answer: > 100 µM

Question: And the TGI [41]?
Answer: > 100 µM

Question: And the TGI [42]?
Answer: > 100 µM

Question: What about the TGI [43] of the same compound?
Answer: > 100 µM

Question: What about the TGI [44] of the same compound?
Answer: > 100 µM

Question: What about the TGI [45] of the same compound?
Answer: > 100 µM

Question: What about the TGI [46] of the same compound?
Answer: > 100 µM

Question: What about the TGI [47] of the same compound?
Answer: > 100 µM

Question: And the TGI [48]?
Answer: > 100 µM

Question: What about the TGI [49] of the same compound?
Answer: > 100 µM

Question: And the TGI [50]?
Answer: > 100 µM

Question: What about the TGI [51] of the same compound?
Answer: > 100 µM

Question: What about the TGI [52] of the same compound?
Answer: > 100 µM

Question: Which TGI [1] does the source give for `COc1ccc(/C=C/C(=O)C(C)(C)CN2CCCCC2)cc1` here?
Answer: 65.2 µM

Question: And the TGI [53]?
Answer: 65.5 µM

Question: What about the TGI [2] of the same compound?
Answer: 41.6 µM

Question: What about the TGI [3] of the same compound?
Answer: 47.1 µM

Question: What about the TGI [54] of the same compound?
Answer: 69 µM

Question: And the TGI [4]?
Answer: 45.9 µM

Question: What about the TGI [5] of the same compound?
Answer: 32.7 µM

Question: And the TGI [6]?
Answer: 53.4 µM

Question: And the TGI [7]?
Answer: 65.8 µM

Question: And the TGI [8]?
Answer: 33 µM

Question: What about the TGI [9] of the same compound?
Answer: 41.3 µM

Question: What about the TGI [10] of the same compound?
Answer: 55.7 µM

Question: What about the TGI [11] of the same compound?
Answer: 30.6 µM

Question: What about the TGI [12] of the same compound?
Answer: 30 µM

Question: And the TGI [13]?
Answer: 37.9 µM

Question: And the TGI [14]?
Answer: 33.8 µM

Question: And the TGI [15]?
Answer: 60.6 µM

Question: And the TGI [55]?
Answer: 60.4 µM

Question: And the TGI [16]?
Answer: 37.7 µM

Question: And the TGI [17]?
Answer: 40.3 µM

Question: What about the TGI [18] of the same compound?
Answer: 54.7 µM

Question: And the TGI [19]?
Answer: 30.1 µM

Question: And the TGI [20]?
Answer: 59.8 µM

Question: What about the TGI [21] of the same compound?
Answer: 30 µM

Question: And the TGI [22]?
Answer: 47.9 µM

Question: And the TGI [23]?
Answer: 38.1 µM

Question: What about the TGI [56] of the same compound?
Answer: 35.5 µM

Question: And the TGI [24]?
Answer: 29.9 µM

Question: And the TGI [25]?
Answer: 22.1 µM

Question: And the TGI [26]?
Answer: 43.3 µM

Question: What about the TGI [27] of the same compound?
Answer: 30.8 µM

Question: And the TGI [28]?
Answer: 65.9 µM

Question: And the TGI [29]?
Answer: 79.8 µM

Question: And the TGI [30]?
Answer: > 100 µM

Question: And the TGI [31]?
Answer: 38 µM

Question: And the TGI [32]?
Answer: 34.3 µM

Question: And the TGI [33]?
Answer: 97.5 µM

Question: What about the TGI [34] of the same compound?
Answer: > 100 µM

Question: And the TGI [35]?
Answer: 29.6 µM

Question: What about the TGI [36] of the same compound?
Answer: 61.7 µM

Question: And the TGI [37]?
Answer: 34.5 µM

Question: What about the TGI [57] of the same compound?
Answer: 38.5 µM

Question: What about the TGI [38] of the same compound?
Answer: 74.3 µM

Question: What about the TGI [39] of the same compound?
Answer: > 100 µM

Question: What about the TGI [40] of the same compound?
Answer: 14.2 µM

Question: What about the TGI [42] of the same compound?
Answer: 60.1 µM

Question: What about the TGI [43] of the same compound?
Answer: 28.9 µM

Question: What about the TGI [44] of the same compound?
Answer: 44.1 µM

Question: And the TGI [45]?
Answer: 33.7 µM

Question: And the TGI [47]?
Answer: 29.6 µM

Question: And the TGI [48]?
Answer: 80.7 µM

Question: And the TGI [49]?
Answer: 46.2 µM

Question: What about the TGI [50] of the same compound?
Answer: > 100 µM

Question: And the TGI [51]?
Answer: 36.4 µM

Question: What about the TGI [52] of the same compound?
Answer: 32.2 µM
